Assay results published in patent US20090054392A1, “NAPHTHYLPYRIMIDINE, NAPHTHYLPYRAZINE AND NAPHTHYLPYRIDAZINE ANALOGS AND THEIR USE AS AGONISTS OF THE WNT-BETA-CATENIN CELLULAR MESSAGING SYSTEM” (Wyeth, priority 2007, published 2009).
pEC50: −log10 of the molar value.

System: Dkk1-LRP5-TCF-Luciferase
Assay: Functional Dkk1-LRP5-TCF-Luciferase Assay in U2OS Cells
Conditions: for pEC50 / fold induction at 2 µM / fold induction at 20 µM: Homo sapiens, U2OS; for fold induction at 2 µM: read-out: B = TCF ACTIVITY/DMSO CONTROL Fold induction @ 2.0 uM, 2.0 uM compound; for fold induction at 20 µM: read-out: C = TCF ACTIVITY/DMSO CONTROL Fold induction @ 20.0 uM, 20.0 uM compound; for A = MAX FOLD Induction/DMSO CONTROL: maximum fold induction over DMSO control

pEC50 | A = MAX FOLD Induction/DMSO CONTROL | Compound | fold induction at 2 µM | fold induction at 20 µM
5.89 | 2.224 fold | OC1CCN(c2nccc(-c3ccc4ccccc4c3)n2)CC1 [1-[4-(2-naphthyl)pyrimidin-2-yl]piperidin-4-ol] | 1.35 | 0.28
5.92 | 1.535 fold | O=C(NCC[C@H]1CCCN1c1nccc(-c2ccc3ccccc3c2)n1)C(F)(F)F [2,2,2-trifluoro-N-(2-{(2R)-1-[4-(2-naphthyl)pyrimidin-2-yl]pyrrolidin-2-yl}ethyl)acetamide] | 0.84 | 2.3
 | 1.180 fold | O=C(CN1CCN(c2nccc(-c3ccc4ccccc4c3)n2)CC1)N1CCOCC1 [4-({4-[4-(2-naphthyl)pyrimidin-2-yl]piperazin-1-yl}acetyl)morpholine] | 1.03 | 2.1
 |  | c1ccc2cc(-c3ccnc(N4CCC(CN5CCCCC5)C4)n3)ccc2c1 (stereo not drawn) [4-(2-naphthyl)-2-[3-(piperidin-1-ylmethyl)pyrrolidin-1-yl]pyrimidine] | 1.66 | 0.01
 |  | COC(=O)[C@@H](NC(=O)OC(C)(C)C)C1CCN(c2nccc(-c3ccc4ccccc4c3)n2)CC1 [methyl (2S)-[(tert-butoxycarbonyl)amino]{1-[4-(2-naphthyl)pyrimidin-2-yl]piperidin-4-yl}acetate] |  | 0.7
5.57 | 2.945 fold | CN(C)C(=O)N1CC[C@H](Nc2nccc(-c3ccc4ccccc4c3)n2)C1 [(3S)—N,N-dimethyl-3-{[4-(2-naphthyl)pyrimidin-2-yl]amino}pyrrolidine-1-carboxamide] | 2.05 | 3.05
 |  | CC(C)(C)Nc1nccc(-c2ccc3ccccc3c2)n1 [N-(tert-butyl)-4-(2-naphthyl)pyrimidin-2-amine] | 1.75 | 
5.53 | 3.895 fold | CCN(CCO)C[C@H]1CCN(c2nccc(-c3ccc4ccccc4c3)n2)C1 [2-[ethyl({(3R)-1-[4-(2-naphthyl)pyrimidin-2-yl]pyrrolidin-3-yl}methyl)amino]ethanol] | 2.93 | 0.15
 |  | Cc1ccc(S(=O)(=O)NCC2CN(c3nccc(-c4ccc5ccccc5c4)n3)C2)cc1 [4-methyl-N-({1-[4-(2-naphthyl)pyrimidin-2-yl]azetidin-3-yl}methyl)benzenesulfonamide] | 1.16 | 0.28
 |  | CC(=O)N(CC(F)(F)F)[C@H]1CCN(c2nccc(-c3ccc4ccccc4c3)n2)C1 [N-{(3S)-1-[4-(2-naphthyl)pyrimidin-2-yl]pyrrolidin-3-yl}-N-(2,2,2-trifluoroethyl)acetamide] | 1.23 | 
 |  | c1ccc2cc(-c3ccnc(N4CCC5(CCNCC5)C4)n3)ccc2c1 [2-[4-(2-naphthyl)pyrimidin-2-yl]-2,8-diazaspiro[4.5]decane] | 1.7 | 
 |  | CCOC(=O)N[C@H]1CCN(c2nccc(-c3ccc4ccccc4c3)n2)C1 [ethyl {(3S)-1-[4-(2-naphthyl)pyrimidin-2-yl]pyrrolidin-3-yl}carbamate] | 1.02 | 1.94
4.69 | 1.500 fold | NC(=O)NC1CCCN(c2nccc(-c3ccc4ccccc4c3)n2)CC1 (stereo not drawn) [N-{1-[4-(2-naphthyl)pyrimidin-2-yl]azepan-4-yl}urea] | 1.62 | 2.89
5.96 | 2.891 fold | CC(N)C1CCN(c2nccc(-c3ccc4ccccc4c3)n2)CC1 (stereo not drawn) [1-{1-[4-(2-naphthyl)pyrimidin-2-yl]piperidin-4-yl}ethanamine] | 2.33 | 0.006

Compound | pEC50 | A = MAX FOLD Induction/DMSO CONTROL | fold induction at 2 µM | fold induction at 20 µM
NCC1CC2CCC(C1)N2c1nccc(-c2ccc3ccccc3c2)n1 (stereo not drawn) [1-{8-[4-(2-naphthyl)pyrimidin-2-yl]-8-azabicyclo[3.2.1]oct-3-yl}methanamine] | 6.26 |  | 1.5 | 
